The test system of this experiment is Naïve CD8+ T cells. From the text:
Naïve CD8+ T cells were isolated from mouse spleen. Cells were activated at a cell density of 10^6 cells/mL using plate-bound αCD3/αCD28+100 U/mL TL2 in RPMI containing 10% FBS.

The text below walks through data of patent US20240285683A1, “Compositions And Methods For Enhancing Immunotherapy” (The Trustees of Princeton University, priority 2017, published 2024).

Regarding `O=CO` [formate], the “cell size at day 1 post activation” value (1 mM formate in media, from 9.5 μm without formate) is given as 10.2 μm. For the same compound, the “extent of cells showing cell surface activation markers (CD25+, CD69+)” value (1 mM formate, from 78% without formate) is reported as 88%. For the setting “formate, p<0.005”, the “reduction of NADH concentration” value came to 1.8 fold. Further, the dead cells (growing CD8+ T cells, from 10% without formate) is 5%.
